Assays:
[1] = biological target: T1, ATP-dependent translocase ABCB1 (Mus musculus, UniProt P21447); assay: TP_TRANSPORTER: increase in brain concentration in mdr1a(-/-) mouse; format: functional, organism-based; details: in vivo
[2] = biological target: T1, ATP-dependent translocase ABCB1; assay: TP_TRANSPORTER: transepithelial transport (basal to apical) in mdr1a-expressing LLC-PK1 cell; format: functional, cell-based; details: pig
[3] = biological target: ATP-dependent translocase ABCB1 (Homo sapiens, UniProt P08183); assay: TP_TRANSPORTER: transepithelial transport (basal to apical) in MDR1-expressing LLC-PK1 cells; format: functional, cell-based; details: pig
Sequence of ATP-dependent translocase ABCB1 (Homo sapiens, UniProt P08183) (P08183 whole entry): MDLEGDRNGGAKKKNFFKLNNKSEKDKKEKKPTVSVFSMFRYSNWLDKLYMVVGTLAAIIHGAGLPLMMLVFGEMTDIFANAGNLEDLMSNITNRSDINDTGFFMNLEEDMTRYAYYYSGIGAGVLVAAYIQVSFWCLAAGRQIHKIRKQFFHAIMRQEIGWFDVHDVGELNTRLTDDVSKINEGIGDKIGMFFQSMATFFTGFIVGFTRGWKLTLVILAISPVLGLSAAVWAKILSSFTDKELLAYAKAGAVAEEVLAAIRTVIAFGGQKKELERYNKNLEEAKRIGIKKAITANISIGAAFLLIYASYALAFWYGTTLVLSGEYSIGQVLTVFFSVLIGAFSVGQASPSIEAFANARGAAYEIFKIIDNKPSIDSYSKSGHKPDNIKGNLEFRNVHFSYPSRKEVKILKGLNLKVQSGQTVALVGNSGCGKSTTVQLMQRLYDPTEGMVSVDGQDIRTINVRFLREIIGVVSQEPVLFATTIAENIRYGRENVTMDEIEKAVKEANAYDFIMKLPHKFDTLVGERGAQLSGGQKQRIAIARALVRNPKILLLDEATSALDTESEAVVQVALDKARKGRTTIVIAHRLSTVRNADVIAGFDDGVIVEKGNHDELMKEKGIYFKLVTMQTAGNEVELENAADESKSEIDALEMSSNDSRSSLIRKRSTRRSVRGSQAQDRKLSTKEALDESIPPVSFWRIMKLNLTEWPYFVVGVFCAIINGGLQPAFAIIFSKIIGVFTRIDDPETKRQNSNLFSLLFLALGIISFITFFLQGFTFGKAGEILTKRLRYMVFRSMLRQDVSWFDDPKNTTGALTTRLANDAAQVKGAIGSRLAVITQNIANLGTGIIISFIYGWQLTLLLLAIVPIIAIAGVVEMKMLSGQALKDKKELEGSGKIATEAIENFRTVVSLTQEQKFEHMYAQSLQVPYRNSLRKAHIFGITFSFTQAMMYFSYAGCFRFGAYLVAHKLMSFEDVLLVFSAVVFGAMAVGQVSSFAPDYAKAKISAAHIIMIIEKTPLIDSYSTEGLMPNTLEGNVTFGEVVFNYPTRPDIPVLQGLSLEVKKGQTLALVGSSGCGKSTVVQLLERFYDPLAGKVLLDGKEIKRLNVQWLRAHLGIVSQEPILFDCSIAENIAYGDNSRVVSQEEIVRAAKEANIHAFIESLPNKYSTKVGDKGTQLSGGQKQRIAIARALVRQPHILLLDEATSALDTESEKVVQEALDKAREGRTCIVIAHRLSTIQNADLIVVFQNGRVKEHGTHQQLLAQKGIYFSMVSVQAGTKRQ

T1 sequence (P21447 whole entry): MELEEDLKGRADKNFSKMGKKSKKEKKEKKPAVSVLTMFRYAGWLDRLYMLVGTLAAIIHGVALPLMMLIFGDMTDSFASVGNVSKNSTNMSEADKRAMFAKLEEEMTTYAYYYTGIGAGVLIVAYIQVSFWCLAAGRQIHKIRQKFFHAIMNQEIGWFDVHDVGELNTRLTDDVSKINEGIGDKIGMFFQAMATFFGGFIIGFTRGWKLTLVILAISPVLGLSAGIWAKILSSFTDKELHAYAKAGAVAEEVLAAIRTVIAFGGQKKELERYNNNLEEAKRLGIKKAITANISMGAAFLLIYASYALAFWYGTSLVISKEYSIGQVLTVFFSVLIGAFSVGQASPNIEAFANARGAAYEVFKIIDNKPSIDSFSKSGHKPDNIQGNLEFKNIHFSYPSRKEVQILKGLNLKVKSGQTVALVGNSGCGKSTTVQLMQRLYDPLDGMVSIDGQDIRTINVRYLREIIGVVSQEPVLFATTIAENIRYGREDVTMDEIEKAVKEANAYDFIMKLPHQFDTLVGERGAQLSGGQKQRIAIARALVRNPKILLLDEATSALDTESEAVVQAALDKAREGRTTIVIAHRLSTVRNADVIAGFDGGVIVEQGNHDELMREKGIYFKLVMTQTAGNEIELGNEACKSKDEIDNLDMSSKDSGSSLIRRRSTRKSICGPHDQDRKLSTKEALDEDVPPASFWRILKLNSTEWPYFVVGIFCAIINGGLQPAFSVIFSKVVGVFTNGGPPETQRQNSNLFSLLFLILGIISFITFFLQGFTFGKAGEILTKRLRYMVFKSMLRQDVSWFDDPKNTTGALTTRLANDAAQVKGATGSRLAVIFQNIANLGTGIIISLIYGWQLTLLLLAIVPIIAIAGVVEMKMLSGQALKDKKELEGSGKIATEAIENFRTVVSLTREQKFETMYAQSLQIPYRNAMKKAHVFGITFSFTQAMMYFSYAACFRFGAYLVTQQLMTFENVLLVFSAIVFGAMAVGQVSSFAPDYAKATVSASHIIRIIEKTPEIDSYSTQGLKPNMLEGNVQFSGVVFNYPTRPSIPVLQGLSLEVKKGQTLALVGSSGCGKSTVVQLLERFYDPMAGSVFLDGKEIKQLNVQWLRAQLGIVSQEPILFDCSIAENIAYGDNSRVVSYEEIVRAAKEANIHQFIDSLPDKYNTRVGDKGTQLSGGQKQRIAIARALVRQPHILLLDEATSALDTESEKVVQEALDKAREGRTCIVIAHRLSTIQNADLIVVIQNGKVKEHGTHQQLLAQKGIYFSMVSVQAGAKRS

Activity [2] | Compound | Activity [1] | Activity [3]
substrate [+] | Cc1nccn1CC1CCc2c(c3ccccc3n2C)C1=O (stereo unspecified) [ONDANSETRON] | substrate [+] | 
substrate [+] | O=C1NC(=O)C(c2ccccc2)(c2ccccc2)N1 [PHENYTOIN] |  | 

Compound | Activity [2] | Activity [1] | Activity [3]
CN(C)C(=O)C(CCN1CCC(O)(c2ccc(Cl)cc2)CC1)(c1ccccc1)c1ccccc1 [LOPERAMIDE] | substrate [+] | substrate [+] | substrate [+]

— ChEMBL document CHEMBL2074127, “P-glycoprotein in the blood-brain barrier of mice influences the brain penetration and pharmacological activity of many drugs” (J Clin Invest, 1996)
